Legend:
C. albicans SC5314 = assay: C. elegans infection model for C. albicans infection; format: in vivo, Caenorhabditis elegans; conditions: C. elegans Δglp-4 Δsek-1 infected with C. albicans
Method: Survival curves of non-infected (ui ctrl.) and infected (i ctrl.) nematodes treated or not with 5-MF are shown in (A), and the survival of living nematodes on day 5 is shown in (B). Synchronized C. elegans Δglp-4 Δsek-1 larvae were infected at the L4 stage as previously described (Delattin N, et al., Antimicrob Chemother. 69(2014): 1035-1044). 35-50 infected worms were then suspended in 750 μL growth medium (M9 buffer supplemented with 10 mg/L cholesterol, 100 mg/L kanamycin and 75 mg/L ampicillin) in separate wells of a 24-well plate with at least 3 wells for each condition. Worms were treated with 200 μM 5-MF or the corresponding volume of solvent (i ctrl) immediately after infection (single application). Worm survival was monitored daily over the period of five days. Additionally, the survival of non-infected worms (ui ctrl) was monitored as a control. […] In (B), worm survival is expressed as the percentage of viability at day 5 compared to day 0, with data analyzed using one-way ANOVA and corrected for multiple comparison using a Bonferroni post-hoc test. ** p<0.01, **** p<0.0001. […]
For efficacy testing of compounds, 750 μL of the worm suspension were transferred into each well of a 24-well plate and substances were added at indicated concentrations (1% DMSO). Nematodes were immediately counted (t0) and survival was monitored over five days post infection by counting living worms. […]

Candida albicans = conditions: according to CN 105 669 625 A; cited from earlier work
C. albicans = assay: In vitro antifungal activity of flavone in combination with azoles, growth via OD490; format: cell-based, Candida albicans; conditions: OD490, flavone plus azole vs each alone
C. glabrata biofilms = assay: Biofilm inhibition by plating (CFU of biofilm cells); format: cell-based, Candida glabrata; conditions: different concentrations of 5-MF
S. cerevisiae BY4741 = assay: ROS accumulation by DHE to ethidium conversion (flow cytometry); format: cell-based, Saccharomyces cerevisiae; conditions: day 3 after treatment
Method: S. cerevisiae BY4741 cells were grown in SMD minimal media to mid-log phase and then treated with the indicated concentrations of 5-MF; control cells were treated with the same amount of solvent (DMSO). (A) Clonogenicity was assayed by plating 500 cells on YPD agar plates and colony forming units (CFUs) were counted to calculate survival rates. (B) Yeast cells were analyzed for cell death markers via AnnV/PI co-staining using flow cytometry. (C) The accumulation of reactive oxygen species was monitored by dihydrotethidium (DHE) to ethidium (Eth) conversion using flow cytometry. Assays in (A-C) were performed on day 3 after treatment. […] Data was analyzed by one-way ANOVA and corrected for multiple comparison using a Bonferroni post-hoc test. ns: not significant, * p<0.05, *** p<0.001, **** p<0.0001. […] Accumulation of ROS was determined by dihydroethidium (DHE) staining as described for PI staining, using a 100 ng/mL DHE solution (Sigma, Germany) in PBS. After staining cells were sedimented again and resuspended in PBS to avoid dye deposition. For each sample, at least 30,000 cells were analyzed using flow cytometry (LSRII Fortessa, BD; Ex: 488 nm, Em: 585 nm).

For `COc1cccc2oc(-c3ccccc3)cc(=O)c12` [5-MF, 5-methoxyflavone], the “worms alive at day 5 post infection” value (C. albicans SC5314; 200 μM 5-MF single application, infected control 20.6%) is given as 42.9%, the “nematode survival over 5 days post infection” value (C. albicans SC5314; compared to infected control) is given as “prolonged protection” and the “synergistic antifungal effect with fluconazole” value (Candida albicans) is given as “does not show such synergistic effect”. For the same molecule, the “enhancement of the antifungal activity of azoles in the presence of the flavone” value (C. albicans) was “enhancement of the antifungal activity”, the “number of biofilm cells (CFUs on YPD agar)” value (C. glabrata biofilms) was “decreased in a concentration-dependent manner” and the “accumulation of reactive oxygen species (DHE to Eth conversion)” value (S. cerevisiae BY4741) was “causes accumulation of reactive oxygen species”.
